Test results taken from patent US9023858B2, “Substituted pyrido[2,3-d]pyrimidines as delta-5-desaturase inhibitors” (Takeda Pharmaceutical Company Limited, priority 2010, dated 2015).
Where a name gives a salt, the structure may show the parent alone.

Key:
[1] = biological target: T1, delta-5-desaturase (Rattus norvegicus, UniProt Q920R3); assay: Inhibitory activity on binding of [3H]-labelled Reference Example 1 ligand to delta-5-desaturase (rat liver microsome fraction); details: test compound 10 μM; for inhibition at 10 µM: 3 nM tritiated ligand of Reference Example 1, read-out: Binding inhibitory activity against compound bind to delta-5-desaturase Binding inhibition rate (%) at 10 μM
T1 construct: a rat liver microsome fraction (10 μl) diluted to 3 mg/ml with a microsome buffer; from tissue; host or cells: rat liver microsome fraction
Experimental: Inhibitory Activity on Binding of N-[2-({4-oxo-3-[4-(2,2,2-trifluoroethoxy)[2,6-^3H2]phenyl]-3,4-dihydrothieno[3,4-d]pyrimidin-2-yl}sulfanyl)ethyl]acetamide (Reference Example 1) to delta-5-desaturase)
All tests were performed at room temperature at 200 μL/well. A rat liver microsome fraction (30 μg/well) was preincubated with a test compound at a final concentration of 10 μM for 15 min in an assay buffer (10 mM Tris-HCl (pH 7.5), 100 mM KCl, 10 mM NaF, 3 mM MgCl2, 0.005% Tween20 and 1 mM GSH). N-[2-({4-oxo-3-[4-(2,2,2-trifluoroethoxy) [2,6-^3H2]phenyl]-3,4-dihydrothieno[3,4-d]pyrimidin-2-yl}sulfanyl)ethyl]acetamide was added to a final concentration of 3 nM and the mixture was incubated for 150 min. For Bound/Free separation, the membrane fraction was added on a GF/C glass filter using a cell harvester. The GF/C glass filter was washed 5 times with 300 μl of ice-cooled assay buffer (without 0.005% Tween) to separate the ligand bound to delta-5-desaturase. 50 μl of MicroScinti 0 was added, and the radioactivity on the filter was measured by TopCount. To evaluate non-specific binding, 10 μM N-[2-({4-oxo-3-[4-(2,2,2-trifluoroethoxy)phenyl]-3,4-dihydrothieno[3,4-d]pyrimidin-2-yl}sulfanyl)ethyl]acetamide was used. The inhibitory rate (%) of the test compound (10 μM) on the binding of N-[2-({4-oxo-3-[4-(2,2,2-trifluoroethoxy) [2,6-^3H2]phenyl]-3,4-dihydrothieno[3,4-d]pyrimidin-2-yl}sulfanyl)ethyl]acetamide to delta-5-desaturase was determined.

[2] = biological target: T1, delta-5-desaturase; assay: Delta-5-desaturase inhibitory activity using rat liver microsome; assay type: biochemical; details: test compound 10 μM
Experimental: Delta-5-Desaturase Inhibitory Activity Using Rat Liver Microsome
The inhibitory activity of the test compound on delta-5-desaturase was measured by the method described below. To a solution of the test compound in DMSO prepared in advance was secondarily diluted with a buffer (300 mM NaH2PO4 [pH 7.4], 450 mM KCl, 30 mM NaF, 9 mM MgCl2, 4.5 mM glutathione [reduced form], 0.3% BSA [fatty acid free, SIGMA]) to give an assay buffer. The assay buffer (10 μl) was dispensed to a polypropylene deep 96-well block, and a rat liver microsome fraction (10 μl) diluted to 3 mg/ml with a microsome buffer (10 mM Tris-HCl [pH 7.4], 1 mM EDTA, 250 mM sucrose) was added. The enzyme reaction was started by adding 9 mM NADH, 9 mM ATP, 0.9 mM CoA, 10 μCi/ml (8E,11E,14E)-(1-^14C)eicosa-8,11,14-trienoic acid (PerkinElmer Inc.) (10 μl). The enzyme reaction was performed for 120 min at room temperature, and discontinued by the addition of 10 μl of 2.5M NaOH. After discontinuation of the reaction, the plate was sealed and incubated overnight at 55° C. to allow saponification. The fatty acid was extracted with solvent based on the Bligh & Dyer method described in Can. J. Biochem. Physiol., vol. 37, page 911 (1959) by adding formic acid:methanol:chloroform (1:6:3) (200 μl), maintaining the single layer state, sufficiently stirring the mixture and adding pure water (120 μl) for separation into two layers. The lower chloroform layer (10 μl) was spotted on a reversed-phase TLC plate (RP-18, 1154230001, Merck Japan, Ltd.), developed with acetonitrile:pure water:acetic acid (95:4.5:0.5), and the dried TLC plate was transcribed on Imaging Plate (Fuji Photo Film Co., Ltd.) for 5 hr or longer. The detection was performed using BAS-5000 (Fuji Photo Film Co., Ltd.), and the obtained spot image was numerically converted by Multi Gauge Ver2.3 (Fuji Photo Film Co., Ltd.) and a delta-5-desaturase inhibitory rate (%) of 10 μM test compound was determined.

[3] = biological target: T2, delta-5-desaturase (Mus musculus, UniProt Q920L1); assay: Delta-5-desaturase inhibitory action in vivo (liver AA/DGLA ratio in mice); details: 3 mg/kg by gavage for 4 days; male C57BL/6J mice; liver phospholipid fraction; solvent administration group as 100%
T2 construct: the mice were anesthetized, and the liver was isolated; tissue CLEA Japan, Inc; host or cells: liver of C57BL/6J mice (in vivo dosing)
T2 sequence (Q920L1 1-447): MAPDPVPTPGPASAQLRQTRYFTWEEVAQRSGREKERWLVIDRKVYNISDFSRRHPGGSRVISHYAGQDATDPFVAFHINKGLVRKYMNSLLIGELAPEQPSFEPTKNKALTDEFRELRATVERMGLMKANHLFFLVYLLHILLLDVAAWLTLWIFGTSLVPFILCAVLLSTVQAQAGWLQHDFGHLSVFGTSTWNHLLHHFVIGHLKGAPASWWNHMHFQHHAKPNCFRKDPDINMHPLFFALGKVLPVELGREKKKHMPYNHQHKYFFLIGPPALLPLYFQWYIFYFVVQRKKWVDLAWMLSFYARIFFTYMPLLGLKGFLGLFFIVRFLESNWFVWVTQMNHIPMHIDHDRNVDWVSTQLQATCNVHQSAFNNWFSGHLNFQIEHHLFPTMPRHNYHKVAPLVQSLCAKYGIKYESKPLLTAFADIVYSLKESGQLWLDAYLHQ
Experimental: Delta-5-Desaturase Inhibitory Action In Vivo
The delta-5-desaturase inhibitory action of the test compound in vivo was evaluated by the following method. A suspension of a test compound (3 mg/kg) in 0.5% methylcellulose was administered by gavage every morning at 10 mL/kg for 4 days to 7- to 9-week-old male normal mice (C57BL/6J, CLEA Japan, Inc.) acclimated with a normal chow feed (CE-2, CLEA Japan, Inc.) in individual cages. In the next morning of the final administration, the mice were anesthetized, and the liver was isolated. Total lipid was extracted from about 40 mg of a liver sample with hexane-propanol solution, and a phospholipid fraction was extracted using a solid phase extraction column (Sep-Pak Vac NH2, Waters) and labeled with an esterified long-chain and short-chain fatty acid labeling reagent (YMC). The arachidonic acid and dihomo-γ-linolenic acid contents of the sample after labeling were measured by high performance liquid chromatography (Agilent 1200, Agilent Technologies). The arachidonic acid (AA) content was divided by the content of dihomo-γ-linolenic acid (DGLA) to obtain an AA/DGLA ratio. The decrease rate of the test compound administration group was calculated based on the AA/DGLA ratio of the solvent administration group as 100%, which was used as an index of the liver delta-5-desaturase inhibitory action in vivo.

[4] = biological target: T3, delta-5-desaturase (Homo sapiens, UniProt O60427); assay: Delta-5-desaturase inhibitory activity using HepG2 cell; assay type: cell-based; details: test compound 1 μM
T3 construct: endogenous in cells; host or cells: HepG2
Experimental: Delta-5-Desaturase Inhibitory Activity Using HepG2 Cell
HepG2 was plated on a 96-well plate at 1×10^5 cells/well, and cultured overnight in DMEM (Dulbecco's modified Eagle medium) containing 10% FBS (fetal bovine serum). After washing (200 μL×2) with PBS (phosphate buffered saline), 40 μL of a reaction medium (DMEM, penicillin/streptomycin, 0.3% BSA) containing the test compound was added, and the mixture was preincubated in a CO2 incubator at 37° C. for 30 min. The reaction was started by adding a reaction medium (20 μL) containing 0.1 μCi [^14C]Eicosatrienoic acid, and the mixture was incubated in a CO2 incubator at 37° C. Incubation was performed for 3 hr, the cells were washed twice with 200 μL of PBS, detached with 50 μL of trypsin-EDTA and placed on a 96-deep well block. Furthermore, 20 μL of 2.5N NaOH was added, the plate was sealed and incubated overnight at 55° C. to allow saponification. The fatty acid extraction included acidifying with 10 μL of formic acid, adding chloroform:methanol (1:4), stirring, and further adding 200 μL of pure water to separate into two layers. The operation after development with TLC followed the method of detection system using TLC in a system using a rat liver microsome. A delta-5-desaturase inhibitory rate (%) of 1 μM test compound was determined.

T3 sequence (O60427 whole entry): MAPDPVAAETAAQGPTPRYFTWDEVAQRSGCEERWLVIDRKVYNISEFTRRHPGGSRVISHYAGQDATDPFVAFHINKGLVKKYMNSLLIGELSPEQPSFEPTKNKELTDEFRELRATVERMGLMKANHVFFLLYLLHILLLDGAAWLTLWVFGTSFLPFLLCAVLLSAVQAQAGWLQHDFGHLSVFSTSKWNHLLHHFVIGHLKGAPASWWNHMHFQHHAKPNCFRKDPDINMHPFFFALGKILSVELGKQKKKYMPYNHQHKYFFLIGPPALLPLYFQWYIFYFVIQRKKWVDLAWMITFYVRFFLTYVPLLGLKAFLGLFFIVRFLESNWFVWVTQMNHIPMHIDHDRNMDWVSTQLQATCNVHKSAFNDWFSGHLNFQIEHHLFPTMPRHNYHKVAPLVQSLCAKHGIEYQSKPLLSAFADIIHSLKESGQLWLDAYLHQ
T1 sequence (Q920R3 whole entry): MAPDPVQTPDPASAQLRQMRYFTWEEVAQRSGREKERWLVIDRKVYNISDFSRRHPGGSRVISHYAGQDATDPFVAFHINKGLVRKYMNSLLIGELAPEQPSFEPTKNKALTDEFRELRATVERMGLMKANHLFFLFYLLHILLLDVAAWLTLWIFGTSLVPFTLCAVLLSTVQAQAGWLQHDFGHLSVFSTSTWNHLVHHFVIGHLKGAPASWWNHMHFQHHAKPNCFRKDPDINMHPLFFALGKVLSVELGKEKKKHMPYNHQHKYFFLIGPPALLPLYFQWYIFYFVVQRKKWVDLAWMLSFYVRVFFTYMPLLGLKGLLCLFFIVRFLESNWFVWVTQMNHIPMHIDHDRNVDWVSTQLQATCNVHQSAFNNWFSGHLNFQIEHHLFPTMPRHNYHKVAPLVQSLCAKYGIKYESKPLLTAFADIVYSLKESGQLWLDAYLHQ

Row | Compound | Binding inhibitory activity against compound bind to delta-5-desaturase Binding inhibition rate (%) at 10 μM ([1]; 3 nM tritiated ligand of Reference Example 1, sodium salt) [%] | delta-5-desaturase inhibitory activity (at liver microsome) Inhibitory activity (%) at 10 μM ([2]; sodium salt, 10 µM) [%] | lowering rate (%) of arachidonic acid/dihomo-γ-linolenic acid ratio [3] [%] | inhibition at 10 µM [1] [%] | inhibition at 10 µM [2] [%] | inhibition at 1 µM [4] [%]
1 | CCOc1nc2[nH]c(=O)ccc2c(=O)n1-c1ccc(OCC(F)(F)F)cc1 [Example 10, 2-ethoxy-3-[4-(2,2,2-trifluoroethoxy)phenyl]pyrido[2,3-d]pyrimidine-4,7(3H,8H)-dione sodium salt] | 94 | 98 | 71 |  |  | 
2 | CCSc1nc2nc(C(N)=O)ccc2c(=O)n1-c1ccc(OCC(F)(F)F)cc1 [Example 27, 2-(ethylsulfanyl)-4-oxo-3-[4-(2,2,2-trifluoroethoxy)phenyl]-3,4-dihydropyrido[2,3-d]pyrimidine-7-carboxamide] |  |  |  | 93 | 97 | 98
3 | CCSc1nc2c(c(=O)n1-c1ccc(OCC(F)(F)F)cc1)CCNC2=O [Example 28, 2-(ethylsulfanyl)-3-[4-(2,2,2-trifluoroethoxy)phenyl]-3,5,6,7-tetrahydropyrido[3,4-d]pyrimidine-4,8-dione] |  |  |  | 92 | 92 | 89
4 | CCSc1nc2c(=O)[nH]ccc2c(=O)n1-c1ccc(OCC(F)(F)F)cc1 [Example 29, 2-(ethylsulfanyl)-3-[4-(2,2,2-trifluoroethoxy)phenyl]-3,7-dihydropyrido[3,4-d]pyrimidine-4,8-dione] |  |  |  | 97 | 99 | 96
5 | CCCSc1nc2c(=O)[nH]ccc2c(=O)n1-c1ccc(OCC(F)(F)F)cc1 [Example 30, 2-(propylsulfanyl)-3-[4-(2,2,2-trifluoroethoxy)phenyl]-3,7-dihydropyrido[3,4-d]pyrimidine-4,8-dione] |  |  |  | 97 | 97 | 96
6 | O=c1[nH]ccc2c(=O)n(-c3ccc(OCC(F)(F)F)cc3)c(OCC(F)(F)F)nc12 [Example 31, 2-(2,2,2-trifluoroethoxy)-3-[4-(2,2,2-trifluoroethoxy)phenyl]-3,7-dihydropyrido[3,4-d]pyrimidine-4,8-dione] |  |  |  | 98 | 96 | 96
7 | CCOc1nc2c(=O)[nH]ccc2c(=O)n1-c1ccc(OCC(F)(F)F)cc1 [Example 32, 2-ethoxy-3-[4-(2,2,2-trifluoroethoxy)phenyl]-3,7-dihydropyrido[3,4-d]pyrimidine-4,8-dione] |  |  |  | 98 | 96 | 88
8 | CCSc1nc2c(OC)nccc2c(=O)n1-c1ccc(OCC(F)(F)F)cc1 [Example 33, 2-(ethylsulfanyl)-8-methoxy-3-[4-(2,2,2-trifluoroethoxy)phenyl]pyrido[3,4-d]pyrimidin-4(3H)-one] |  |  |  | 96 | 101 | 93
9 | CCOc1nc2c(OCCOC)nccc2c(=O)n1-c1ccc(OCC(F)(F)F)cc1 [Example 34, 2-ethoxy-8-(2-methoxyethoxy)-3-[4-(2,2,2-trifluoroethoxy)phenyl]pyrido[3,4-d]pyrimidin-4(3H)-one] |  |  |  | 88 | 98 | 93
10 | COCCOc1nccc2c(=O)n(-c3ccc(OCC(F)(F)F)cc3)c(OCCOC)nc12 [Example 35, 2,8-bis(2-methoxyethoxy)-3-[4-(2,2,2-trifluoroethoxy)phenyl]pyrido[3,4-d]pyrimidin-4(3H)-one] |  |  |  | 89 | 91 | 91
11 | CCSc1nc2c(=O)n(C)ccc2c(=O)n1-c1ccc(OCC(F)(F)F)cc1 [Example 36, 2-(ethylsulfanyl)-7-methyl-3-[4-(2,2,2-trifluoroethoxy)phenyl]-3,7-dihydropyrido[3,4-d]pyrimidine-4,8-dione] |  |  |  | 101 | 101 | 92
12 | CCSc1nc2nc(OC)cnc2c(=O)n1-c1ccc(OCC(F)(F)F)cc1 [Example 37, 2-(ethylsulfanyl)-7-methoxy-3-[4-(2,2,2-trifluoroethoxy)phenyl]pteridin-4(3H)-one] |  |  |  | 97 | 99 | 93
13 | CCSc1nc2[nH]c(=O)cnc2c(=O)n1-c1ccc(OCC(F)(F)F)cc1 [Example 38, 2-(ethylsulfanyl)-3-[4-(2,2,2-trifluoroethoxy)phenyl]pteridine-4,7(3H,8H)-dione] |  |  |  | 91 | 95 | 76
